This passage reports TGI and GI50 results from PubChem BioAssay (NCI).

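The compound was tested at five concentrations on cells cultured in 96-well plates, with a 48-hour exposure period. GI50 is the concentration that inhibits growth by half. TGI denotes the concentration required for complete inhibition of growth.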

Among the test systems are HCC-2998 colon; EKVX NSCLC; SR leukemia; RXF 393 renal; UACC-62 melanoma; SK-OV-3 ovarian; A498 renal.
Common to all, as to assay: NCI tumour cell line growth inhibition, 48 h

As to `C1CSC[C@H]2COC[C@@H](CSCCS1)S2`, the TGI in the assay on HCC-2998 colon, in the assay on EKVX NSCLC and in the assay on SR leukemia was > 100 µM in each case.
As to `COC1=C(OC)C(=O)C(C/C=C(\C)CC/C=C(\C)CC/C=C(\C)CC/C=C(\C)CC/C=C(\C)CC/C=C(\C)CC/C=C(\C)CC/C=C(\C)CC/C=C(\C)CCC=C(C)C)=C(C)C1=O`, the GI50 with RXF 393 renal, in the assay with HCC-2998 colon, in the assay on UACC-62 melanoma, with EKVX NSCLC, in the assay with SR leukemia and with SK-OV-3 ovarian was > 100 µM throughout. Also, the TGI in the assay on RXF 393 renal, in the assay with HCC-2998 colon, in the assay on UACC-62 melanoma, in the assay with EKVX NSCLC, in the assay on SR leukemia and in the assay with SK-OV-3 ovarian was > 100 µM throughout.
For the compound `N#C/C(=C/N1CCN(C(=O)c2ccco2)C1=S)C(=O)Nc1ccc(Cl)cc1`, the GI50 with RXF 393 renal was 13.1 µM; in the assay with UACC-62 melanoma, 16.9 µM; in the assay on SR leukemia, 1.56 µM; in the assay on SK-OV-3 ovarian, 41.2 µM. In addition, the TGI with RXF 393 renal is 44.9 µM; with UACC-62 melanoma it was > 50 µM; with SR leukemia, 21.3 µM; in the assay on SK-OV-3 ovarian, > 50 µM.
On to `O=C1CC(c2cccc(Cl)c2)Oc2ccccc21` (centres undefined), for which the TGI worked out at 35.7 µM with HCC-2998 colon; 29.8 µM with UACC-62 melanoma; 43.7 µM in the assay on EKVX NSCLC; 46.3 µM with A498 renal; 46 µM in the assay on SK-OV-3 ovarian.
With `CC1CCCC(C#N)(NOC2=NCCN2)C1` (centres undefined), the GI50 with RXF 393 renal was 65.1 µM; with UACC-62 melanoma, 26.4 µM; in the assay with EKVX NSCLC, 0.0758 µM; in the assay on SR leukemia, 7.87 µM. Besides, the TGI in the assay on RXF 393 renal is > 100 µM; with UACC-62 melanoma, 94.8 µM; in the assay on EKVX NSCLC, 28.2 µM; with SR leukemia it was > 100 µM.
On to `FC(F)c1ncc(-c2ccc(C(F)(F)F)cc2)c(NC2CCCCCC2)n1`, for which the GI50 in the assay on RXF 393 renal, in the assay with HCC-2998 colon, in the assay with UACC-62 melanoma, with SR leukemia, in the assay on A498 renal and with SK-OV-3 ovarian was > 10 µM each time. Also, the TGI in the assay on RXF 393 renal, with HCC-2998 colon, in the assay on UACC-62 melanoma, with SR leukemia, in the assay with A498 renal and in the assay on SK-OV-3 ovarian was > 10 µM each time.
For the compound `NC1=NC(SCc2ccccc2CCl)c2ncn(Cc3ccccc3CCl)c2N1` (centres undefined), the GI50 with RXF 393 renal is 1.48 µM; with UACC-62 melanoma, 2.54 µM; in the assay on EKVX NSCLC, 3.14 µM; in the assay with SR leukemia it was 1.56 µM; in the assay with A498 renal, 8.51 µM; with SK-OV-3 ovarian, 3.87 µM. Besides, the TGI came out at 2.85 µM with RXF 393 renal; 10.4 µM in the assay with UACC-62 melanoma; 11.6 µM with EKVX NSCLC; 6.46 µM with SR leukemia; 25.3 µM with A498 renal; 13.9 µM in the assay with SK-OV-3 ovarian.
For `C=CC1C(CC2OC(CO)C(O)C(O)C2O)OC=C2C(=O)OCCC21O` (centres undefined), the GI50 is 15.3 µM with HCC-2998 colon; 21.2 µM in the assay on UACC-62 melanoma; 39.8 µM in the assay on EKVX NSCLC; 3.32 µM in the assay on SR leukemia; 46.6 µM in the assay with SK-OV-3 ovarian. Moreover, the TGI in the assay on HCC-2998 colon was 34.4 µM; with UACC-62 melanoma, 53.3 µM; in the assay on EKVX NSCLC it was > 100 µM; with SR leukemia, 26.5 µM; in the assay on SK-OV-3 ovarian it was > 100 µM.
For the compound `Cc1cc(=O)[nH]c(N/N=C/c2ccccc2O)n1`, the GI50 in the assay with RXF 393 renal was 12.8 µM; in the assay with HCC-2998 colon it was 12.3 µM; in the assay with UACC-62 melanoma, 9.92 µM; with SR leukemia, 6.22 µM; in the assay with A498 renal it was 20.5 µM; in the assay on SK-OV-3 ovarian, 6.88 µM. The TGI was 92.6 µM in the assay on RXF 393 renal; > 100 µM in the assay on HCC-2998 colon; 51 µM in the assay with UACC-62 melanoma; > 100 µM in the assay on SR leukemia; 93.2 µM in the assay on A498 renal; > 100 µM with SK-OV-3 ovarian.
`Fc1ccc2c(c1)C1=C(CCC2)C(c2ccc(Cl)cc2)NC(=S)N1` (centres undefined): the GI50 is 81.4 µM in the assay with RXF 393 renal; 43.2 µM in the assay on HCC-2998 colon; 33.6 µM with UACC-62 melanoma; 32.8 µM in the assay with EKVX NSCLC; 43.6 µM with A498 renal; > 100 µM in the assay on SK-OV-3 ovarian. Moreover, the TGI in the assay with RXF 393 renal, in the assay on HCC-2998 colon, in the assay with UACC-62 melanoma, in the assay with EKVX NSCLC, in the assay with A498 renal and with SK-OV-3 ovarian was > 100 µM each time.
On to `N#CC1=C(N)NC(N2CCOCC2)=NC12Nc1ccccc1O2` (centres undefined), for which the GI50 in the assay on RXF 393 renal was 61.5 µM; in the assay on UACC-62 melanoma, 53.9 µM; with EKVX NSCLC, > 100 µM; with SR leukemia, 27.7 µM; in the assay with SK-OV-3 ovarian it was > 100 µM. For the same compound, the TGI in the assay with RXF 393 renal, in the assay with UACC-62 melanoma, with EKVX NSCLC, in the assay on SR leukemia and with SK-OV-3 ovarian was > 100 µM throughout.
For the compound `COc1cc(OC)c2c(=O)cc(-c3ccccc3OCc3ccccc3)oc2c1OC`, the GI50 with RXF 393 renal is > 100 µM; with HCC-2998 colon it was 2.39 µM; with UACC-62 melanoma it was 4.14 µM; in the assay with EKVX NSCLC it was 5.54 µM; in the assay with A498 renal it was 9.62 µM; in the assay with SK-OV-3 ovarian, 98 µM. Moreover, the TGI is > 100 µM in the assay with RXF 393 renal; 7.54 µM in the assay on HCC-2998 colon; 17.7 µM with UACC-62 melanoma; 91.2 µM in the assay on EKVX NSCLC; 69.9 µM in the assay on A498 renal; > 100 µM with SK-OV-3 ovarian.
On to `COc1cc(C2c3cc4c(cc3OC(O)C2C)OCO4)cc(OC)c1OC` (centres undefined), for which the TGI is > 100 µM in the assay with RXF 393 renal; > 41.8 µM in the assay on HCC-2998 colon; > 100 µM in the assay on UACC-62 melanoma; > 100 µM in the assay with EKVX NSCLC; 50.2 µM in the assay with A498 renal; 23.3 µM with SK-OV-3 ovarian.
As to `OCCCCC#Cc1ccccc1C#Cc1cccnc1`, the GI50 with RXF 393 renal is 5.95 µM; in the assay on HCC-2998 colon, 24.8 µM; in the assay on UACC-62 melanoma, 35.2 µM; in the assay on EKVX NSCLC it was 41.7 µM; with A498 renal, 28.5 µM; in the assay on SK-OV-3 ovarian, 57.3 µM. Further, the TGI is 28.6 µM in the assay with RXF 393 renal; 70.7 µM with HCC-2998 colon; > 100 µM in the assay on UACC-62 melanoma; > 100 µM in the assay on EKVX NSCLC; 88.4 µM in the assay with A498 renal; > 100 µM in the assay with SK-OV-3 ovarian.
